Experimental findings from a melting point compilation (Tetko et al.; mined from patent text by program, amines drawn as free bases though some values may be those of a salt) are described below.

By melting point is commonly meant the temperature, or range, at which the solid turns liquid. In turn, `COc1ccc2c(C)c(CCO)c(=O)oc2c1OC` registered a melting point of 113 to 114 °C.

In the case of `CC(=O)NC1CCN(Cc2ccccc2)C1` (stereo not given), the melting point was 83 to 85 °C. Next, `COc1cccc2c(COCCC(c3ccccc3)c3ccccc3)coc12`: 147 to 149 °C; `O=C(CCCN1CCC(=C(c2ccccc2)c2ccccc2)CC1)c1ccc(F)cc1`: 111 to 114 °C. Turning to `Cc1nc(N2C(=O)CN(c3ccc(F)cc3)C2=O)sc1C(=O)NCc1ccccc1`, the melting point lay in the range of 217 to 219 °C. The compound `CNC(=O)NC(=O)C(CC1CCCC1O)c1ccc(Cl)c(Cl)c1` (stereo not given) showed a melting point of 62 to 64 °C. `CC(C)n1nc(-c2c(-c3ccccc3)nn3ccc(OCCN4CCCCC4)cc23)ccc1=O` came in with a melting point of 144 °C. Regarding `CCc1cc(C(C)=O)c(O)cc1OCc1ccc(C(=O)O)c(O)c1`, the melting point lay within 214 to 216 °C. With `N#Cc1c(N)cccc1N` the figure was 91 to 92 °C; with `CC(=O)Nc1nc(CCc2ccc(CCCN)s2)cs1`, 106 to 108 °C; with `CCOCc1nc2c(N)nc3cc(-c4cccnc4)ccc3c2n1CCNC(=O)NC(C)C`, 194 to 196 °C. In turn, `O=C(NCc1ccc(Cl)cc1)c1cn2c(CO)cc3cc(CN4CCOCC4)cc(c1=O)c32` returned a melting point of 210 to 212 °C. The compound `CCN=C1SC(=CC(=O)O)C(=O)N1CC` came in with a melting point of 148 to 152 °C. With `OCC(COCCCCCCCCOc1ccc(-c2ccccc2)cc1)OCc1ccccc1` (stereo not given), the melting point was in the range of 48 to 50 °C. In turn, `O=C(O)c1cccc(-n2ncc3c2CCc2ccccc2-3)c1` gave a melting point of 273 to 275 °C. `CCCCc1ncc(/C=C(\Cc2cccs2)C(=O)O)n1Cc1ccccc1[N+](=O)[O-]` had a melting point of 205 to 206 °C. Next, `COCN1C(=O)CN=C(c2ccccc2)c2cc(NO)ccc21`: 168 to 170 °C; `NC(=O)c1c(Br)cc(Br)c(CC(=O)O)c1Br`: 245 °C. `COc1ccc2c(c1)C(Cl)(C(F)(F)F)OC(=O)N2` (stereo not given) had a melting point of 112 to 114 °C.

As for `CC(=O)CC(=O)NC1CC1`, the melting point is 65 to 66 °C. Next, `COc1cc(N)c(C(=O)c2ccncc2)cc1OC`: 155 to 158 °C; `O=[N+]([O-])c1cn2c(n1)OC(COc1ccc(N3CCC(Cc4cc5cc(OC(F)(F)F)ccc5o4)CC3)cc1)CC2` (stereo not given): 142 to 143 °C. Take `O=C(O)c1cccc2c1oc1ccccc12`: the melting point was in the range of 164 to 165 °C. The compound `O=C(O)c1ccc(-c2cnc3c(c2)N(Cc2cc(F)ccc2F)CCN3)cc1` yielded a melting point above 300 °C. For `CC(C)CCOc1cccc2c1C(=O)CC(c1nnn[nH]1)O2` (stereo not given), the melting point is 134 to 137 °C.

`O=C(Nc1ccc(C(=O)N2Cc3cccn3-c3ccccc32)cc1)c1cccc(Cl)c1Cl` registered a melting point of 230 to 240 °C. Next, `COc1ccc(Nc2nc(Nc3cc4c(cc3OC)CCN(CC(=O)N(C)C)CC4)ncc2Cl)c(S(=O)(=O)C(C)C)c1`: 68 to 79 °C; `COCCOC(=O)C(=O)Nc1nc(-c2ccccc2)cs1`: 118 to 120 °C; `[N-]=[N+]=NC1CC(n2cnc3c(NCC4CC4)nc(N)nc32)OC1CO` (stereo not given): 104 to 106 °C.

Compound `Cc1c(NC(=O)CC(C)(C)C)cc2c(c1C)OC(C)(C)C2c1cccc(C(C)C)c1` (stereo not given) came in with a melting point of 162 to 163 °C. `N=C(N)Nc1ncc(Cl)c2ccc(S(=O)(=O)N(CCOC3CCCCO3)C3(C(=O)O)CCCC3)cc12` (stereo not given) had a melting point of 281 to 289 °C. For the compound `SCC1CSC2(SCCS2)S1` (stereo not given), the melting point is 79 to 80.5 °C. Next, `O=C(O)c1ccc(-c2csc(-c3ccccc3)n2)cc1`: 245 to 248 °C. Consider `CCCCOc1nc(N)c2nc(Br)n(C3CCCCO3)c2n1` (stereo not given), for which the melting point was 148 to 150 °C. In turn, `COc1cc2cc(CO)cc(-c3ccnc(Cl)c3)c2cc1OC` displayed a melting point of 115 to 118 °C. With `Cc1cc(C)cc(COC(=O)C(Cc2c[nH]c3ccccc23)NC(=O)c2ccccc2)c1` (stereo not given) the figure was 133 to 134 °C; with `CC1(CC(=O)Nc2cccc3ncccc23)CCCCC1`, 133 to 135 °C; with `CN(C)Cc1cc(-c2ccccc2)c(O)c(-c2ccccc2)c1`, 136 to 137 °C.

Take `C=Cc1cc(Cl)c(N)c(Cl)c1`: the melting point was 63 °C. For the compound `COc1cc2c(cc1OC)C(C(C#N)SCCCO)=NCC2` (stereo not given), the melting point was 155 to 156 °C. The compound `CNC(=O)c1cc(C(=O)O)c2cc(Cc3ccc(F)cc3)cnc2c1O` registered a melting point of 203 to 205 °C.

`O=C(NS(=O)(=O)c1ccccc1)c1ccc(C=CC(=O)N2CCc3c([nH]c4ccccc34)C2c2ccc3c(c2)OCO3)cc1` (stereo not given) returned a melting point of 134 °C.

Compound `CC(C)(C)c1cc(-n2nc3c(Br)ccc(Br)c3n2)c(O)c(C(C)(C)C)c1` gave a melting point of 244 to 246 °C. For the compound `O=C(O)Cc1cc(Cl)cc(Cl)c1OCCc1ccccc1`, the melting point fell in the range of 73 to 76 °C.

`CC(=O)SCCCC1(C)C(=O)N2CCCC(C(=O)O)N2C1=O` (stereo not given) had a melting point of 160 to 161 °C.

With `Nc1nc2ccccc2c2c1ncn2CCCCNC(=O)c1ccccc1`, the melting point lay in the range of 210 to 212 °C.

In turn, `O=C(NOCCO)c1ccc(F)c(F)c1Nc1ccccc1F` gave a melting point of 130 °C. Turning to `CCc1ccc(Nc2nc3cc(NC(=O)c4cc(OC)c(OC)c(OC)c4)ccc3o2)cc1`, the melting point was above 250 °C. The compound `Cc1ccn2nc(S(=O)(=O)Nc3c(Cl)cccc3Cl)nc2c1` had a melting point of 232 to 234 °C. For the compound `Cc1cnc2c(c1)nc(C)n2-c1ccccc1`, the melting point lay in the range of 77 to 79 °C. Compound `CNC(=O)COCC(=O)O` had a melting point of 33 to 33.5 °C. For `CC(C)=CC(=O)On1cc(Cl)cn1`, the melting point stood at 71 °C. For `O=P(O)(O)C1(P(=O)(O)O)Cc2ccccc2C1`, the melting point is 55 to 57 °C. In turn, `CCCOc1ccc2c(c1)[C@@H](c1ccc(OC)cc1OCCO)[C@H](C(=O)O)[C@H]2c1ccc2c(c1)OCO2` had a melting point of 125 to 127 °C. Regarding `CCOC(=O)c1ccc(-c2ccc(-c3ccccc3OCOC)c(-c3ccc4c(c3)C(C)(C)CCC4(C)C)c2)cc1`, the melting point lay in the range of 132 to 135 °C. With `Cc1ccc(COc2ccccc2C=C2CCCCC2N2CCC2)cc1` (stereo not given) the figure was 88 to 90 °C; with `CN(C)c1ccc2nc(N)c(C#N)c(Cl)c2c1`, 285 °C. Take `N#CC(CC(=O)O)c1ccc(Cl)c(Cl)c1` (stereo not given): the melting point was 104 °C. For the compound `CC(C)CC1(CC(C)C)CCc2c(OCc3ccc4ccccc4n3)cccc2C1O` (stereo not given), the melting point was 144 to 146 °C.

Take `Cc1ccc(C(=O)Nc2cc(Cl)c(O)c(Cl)c2)c(O)c1`: the melting point lay within 246 to 247 °C.

The compound `CCC(Oc1ccc(-c2ccc(C#N)c(Cl)c2)cc1)C(O)CCc1cccnc1` (stereo not given) returned a melting point of 99 to 100 °C. Compound `CCCCc1nc2sc(Cl)cc2c(=O)n1CCC` came in with a melting point of 67 to 69 °C. `c1ccc(CCc2nc(COc3ccc(CCCn4ccnc4)cc3)co2)cc1` gave a melting point of 67 to 68 °C.

`CC1(C)CC(n2ccc(-c3ccc(F)cc3)c2-c2ccncc2)CC(C)(C)N1` had a melting point of 118 to 119 °C. Compound `C#CCC(NC(=O)c1ccc(C)cc1)C(C)=O` (stereo not given) had a melting point of 65 to 67 °C.
